Data on twelve compounds can be found in ChEMBL document CHEMBL1201862, “PubChem BioAssay data set” (2004).

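Exposure lasted 48 hours, with cells grown in 96-well plates and compounds tested at five concentrations. Abbreviation: GI50, concentration required for 50% inhibition of growth.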 Active and inactive are the calls of the source. Rule as the data show it: active = GI50 up to about 1.1 µM and inactive = higher.

Some test systems named below: PC-3; SNB-19; CAKI-1; DU-145; UO-31; U-251; NCI-H23; MDA-MB-435; MDA-N; SK-OV-3; SF-539; KM12; SW-620; T47D; RPMI-8226; SN12C; SF-268; M19-MEL; KM-20L2.
Assay in all cases: DTP human tumour cell line panel, 48 h

The term GI50 denotes the concentration giving 50% growth inhibition. Consider `CN(C)CCNCCN`, for which the GI50 in the assay with PC-3, in the assay on SNB-19, in the assay on CAKI-1, in the assay with DU-145, in the assay with UO-31 and with U-251 was > 100 µM (inactive) each time. The GI50 in the assay with NCI-H23, in the assay on MDA-MB-435, in the assay on MDA-N, in the assay with SK-OV-3, in the assay on SF-539 and in the assay with KM12 was > 100 µM (inactive) in each case. The GI50 in the assay with SW-620, in the assay on T47D, in the assay with RPMI-8226, in the assay with SN12C and in the assay with SF-268 was > 100 µM (inactive) in each case.

Take `Cc1cc(C)c(O)c(Cc2cccc(Cc3cc(C)cc(C)c3O)c2O)c1`: the GI50 with PC-3, in the assay with SNB-19, with CAKI-1, in the assay with DU-145, in the assay with UO-31 and in the assay on U-251 was > 100 µM (inactive) in each case. Also, the GI50 with NCI-H23, in the assay with MDA-MB-435, in the assay with MDA-N, with SK-OV-3, with SF-539 and in the assay with KM12 was > 100 µM (inactive) each time. Moreover, the GI50 in the assay with SW-620, with T47D, with RPMI-8226, in the assay with SN12C and in the assay on SF-268 was > 100 µM (inactive) each time.

In the case of `NC(=O)c1ccc[n+](C2=C([N-]S(=O)(=O)c3ccccc3)C(=O)c3ccccc3C2=O)c1`, the GI50 is 15.9 µM (inactive) with PC-3; 15.8 µM (inactive) with SNB-19; 22.1 µM (inactive) with CAKI-1; 19.1 µM (inactive) with DU-145; 14.5 µM (inactive) in the assay with UO-31; 15.1 µM (inactive) in the assay on U-251. Also, the GI50 in the assay with NCI-H23 is 14.9 µM (inactive); in the assay with MDA-MB-435 it was 4.89 µM (inactive); in the assay on MDA-N, 16.7 µM (inactive); with SK-OV-3, 29.4 µM (inactive); with SF-539, 18 µM (inactive); in the assay on KM12, 13.1 µM (inactive). The GI50 in the assay on SW-620 is 16.6 µM (inactive); in the assay on T47D, 22.6 µM (inactive); in the assay on RPMI-8226, 26.2 µM (inactive); with SN12C it was 16.9 µM (inactive); with SF-268 it was 16.6 µM (inactive).

Take `O=CNCCCN1CCN(CCCNC=O)CC1`: the GI50 in the assay on PC-3, in the assay with SNB-19, in the assay with CAKI-1, in the assay on DU-145, in the assay with UO-31 and in the assay on U-251 was > 100 µM (inactive) each time. The GI50 in the assay with NCI-H23, with MDA-MB-435, with MDA-N, in the assay on SK-OV-3, in the assay with SF-539 and in the assay with KM12 was > 100 µM (inactive) in each case. For the same compound, the GI50 in the assay on SW-620 was > 100 µM (inactive); in the assay with T47D it was > 100 µM (inactive); with RPMI-8226, > 100 µM (inactive); with SN12C it was > 100 µM (inactive); in the assay with SF-268, 4.88 µM (inactive).

Turning to `N#CC1=C(N)N2C(=O)/C(=C/c3ccccc3O)N=C2S1`, the GI50 with PC-3 was > 100 µM (inactive); in the assay on SNB-19, > 100 µM (inactive); in the assay with CAKI-1, 51.5 µM (inactive); with DU-145 it was > 100 µM (inactive); in the assay on UO-31, 94.6 µM (inactive); in the assay on U-251, > 100 µM (inactive). Also, the GI50 with NCI-H23 is 95.3 µM (inactive); in the assay on MDA-MB-435 it was > 100 µM (inactive); in the assay with MDA-N, 86.3 µM (inactive); in the assay on SK-OV-3, > 100 µM (inactive); with SF-539, 28.8 µM (inactive); in the assay with KM12, > 100 µM (inactive). In addition, the GI50 in the assay on SW-620 is > 100 µM (inactive); in the assay with T47D, > 100 µM (inactive); with RPMI-8226, 30.6 µM (inactive); in the assay on SN12C, > 100 µM (inactive); in the assay with SF-268, 41.1 µM (inactive).

For the compound `CN(/N=C/c1ccccc1C(=O)O)C1=NCCCCN1`, the GI50 in the assay on PC-3, in the assay on SNB-19, with CAKI-1, in the assay on DU-145, in the assay with UO-31 and with U-251 was > 100 µM (inactive) each time. Besides, the GI50 in the assay with NCI-H23, in the assay on MDA-MB-435, in the assay with MDA-N, with SK-OV-3, in the assay with SF-539 and in the assay on KM12 was > 100 µM (inactive) throughout. Further, the GI50 with SW-620, with T47D, in the assay with RPMI-8226, in the assay with SN12C and in the assay with SF-268 was > 100 µM (inactive) each time.

Take `CSC(=S)Nc1cc(C)ccn1`: the GI50 with PC-3 is > 100 µM (inactive); with SNB-19, > 100 µM (inactive); in the assay with CAKI-1, > 100 µM (inactive); in the assay on DU-145 it was > 100 µM (inactive); with UO-31, > 100 µM (inactive); in the assay on U-251 it was 67.8 µM (inactive). The GI50 with NCI-H23, in the assay on MDA-MB-435, in the assay on MDA-N, in the assay with SK-OV-3, with SF-539 and in the assay with KM12 was > 100 µM (inactive) throughout. Also, the GI50 was > 100 µM (inactive) in the assay on SW-620; 58.9 µM (inactive) in the assay with T47D; 97.7 µM (inactive) with RPMI-8226; 57.7 µM (inactive) in the assay with SN12C; 70 µM (inactive) in the assay on SF-268.

On to `CC(=O)NC(Cc1ccc(OP(=O)(OCc2ccc([N+](=O)[O-])o2)N(C)CCCCCl)cc1)C(=O)NC(C)c1ccc(OCC2CCCCC2)c(C(N)=O)c1` (centres undefined), for which the GI50 in the assay with PC-3 was 2.79 µM (inactive); in the assay on SNB-19 it was 3.9 µM (inactive); in the assay with CAKI-1, 21.3 µM (inactive); in the assay on DU-145 it was 3.74 µM (inactive); in the assay on UO-31, 17.3 µM (inactive); with U-251 it was 2.48 µM (inactive). The GI50 in the assay with NCI-H23 is 2.21 µM (inactive); in the assay with MDA-MB-435, 2.31 µM (inactive); in the assay with MDA-N it was 2.24 µM (inactive); with SK-OV-3, 11.5 µM (inactive); with SF-539, 2.08 µM (inactive); in the assay with KM12, 2.68 µM (inactive). In addition, the GI50 is 4.11 µM (inactive) with SW-620; 2.76 µM (inactive) in the assay on T47D; 1.72 µM (inactive) in the assay on RPMI-8226; 2.34 µM (inactive) in the assay on SN12C; 2.24 µM (inactive) in the assay on SF-268.

Turning to `COC(=O)C(=O)C(C(=O)C(=O)Nc1cccc(OC)c1)c1nc2ccc(Cl)cc2nc1O` (centres undefined), the GI50 in the assay on PC-3, in the assay on SNB-19, in the assay with CAKI-1, in the assay with DU-145, in the assay with UO-31 and with U-251 was > 100 µM (inactive) throughout. Further, the GI50 was > 100 µM (inactive) with NCI-H23; 83.6 µM (inactive) with MDA-MB-435; > 100 µM (inactive) in the assay on MDA-N; > 100 µM (inactive) in the assay with SK-OV-3; > 100 µM (inactive) in the assay with SF-539; > 100 µM (inactive) with KM12. Also, the GI50 with SW-620, in the assay on T47D, with RPMI-8226, in the assay on SN12C and in the assay on SF-268 was > 100 µM (inactive) throughout.

In the case of `OCC(O)C(OC1OC(CO)C(O)C(O)C1O)c1nn(-c2ccc(Cl)cc2)c2nc3cc(Cl)ccc3nc12` (centres undefined), the GI50 with M19-MEL, in the assay with SNB-19, with UO-31, with U-251, in the assay on NCI-H23 and in the assay on SK-OV-3 was > 100 µM (inactive) in each case. The GI50 in the assay with SF-539, with KM12, with RPMI-8226, in the assay on SN12C, with KM-20L2 and in the assay on SF-268 was > 100 µM (inactive) in each case.

Turning to `CC(=O)OC12CC[N+]3(C)CCCCC3C1=Nc1ccccc12` (centres undefined), the GI50 with PC-3, in the assay with SNB-19, in the assay on CAKI-1, in the assay on DU-145, with UO-31 and in the assay with U-251 was > 100 µM (inactive) in each case. For the same compound, the GI50 is > 100 µM (inactive) in the assay on NCI-H23; > 100 µM (inactive) with MDA-MB-435; > 100 µM (inactive) in the assay on MDA-N; > 100 µM (inactive) with SK-OV-3; > 100 µM (inactive) with SF-539; 82.8 µM (inactive) in the assay on KM12. In addition, the GI50 in the assay with SW-620, with T47D, with RPMI-8226, with SN12C and in the assay with SF-268 was > 100 µM (inactive) each time.

Take `C[C@@H]1C[C@H](O)[C@]2(O)O[C@@H]3C[C@@]4(C=O)[C@@H](CC[C@@H]5[C@@H]4CC[C@]4(C)[C@@H](C6=CC(=O)OC6)CC[C@]54O)C[C@H]3O[C@@H]2O1` [CALOTROPIN]: the concentration for 50% growth inhibition (GI50) with PC-3 is 0.0234 µM (active); in the assay with SNB-19, 0.083 µM (active); in the assay on CAKI-1 it was 0.023 µM (active); in the assay on DU-145, 0.0134 µM (active); in the assay with UO-31, 0.0583 µM (active); in the assay on U-251, 0.034 µM (active). Also, the GI50 was 0.0188 µM (active) with NCI-H23; 0.0675 µM (active) with MDA-MB-435; 0.0692 µM (active) in the assay on MDA-N; 0.0351 µM (active) in the assay on SK-OV-3; 0.0212 µM (active) with SF-539; 0.0809 µM (active) with KM12. The GI50 is 0.0247 µM (active) in the assay on SW-620; 0.0303 µM (active) with T47D; 0.0246 µM (active) in the assay on RPMI-8226; 0.0202 µM (active) in the assay with SN12C; 0.0406 µM (active) in the assay on SF-268.
